Assay results: patent US20100204143A1, “GAMMA 1 MSH ALONE OR IN COMBINATION WITH PENTAGASTRIN AS A THERAPEUTIC AGENT” (priority 2007, published 2010)
No end group written: not given here.

Experiments:
IL-4 spleen cells = assay: Th1/Th2 cytokine profiling assay: IL-4; assay type: cell-based, Balb/c mice; conditions: 10 micrograms per ml; Ovalbumin restimulation; 72 hours
Description: (§1) The Balb/c mice (originated in 1923, it is a popular strain and is used in many different research disciplines. Also classified as an inbred from the production of 20 or more successive brother-sister matings, the Balb/c mouse is albino and small in size) were immunized on Days 1, 15, and 29 with Ovalbumin (Ovalbumin is the main protein found in egg white, commonly used to stimulate an immunological reaction in test animals) in PBS (5 micrograms/injection). On day 50, spleens of the mice were harvested (3 weeks after last boost with Ovalbumin). […] Thereafter, additional Ovalbumin was added to the cells at 10 micrograms/ml for in vitro restimulation of the cells. 72 hours later, cell supernatants were harvested and assayed using the Becton Dickinson Mouse Th1/Th2 Cytokine CBA Kit. This kit can be used to measure Interleukin-2 (IL-2), Interleukin-4 (IL-4), Interleukin-5 (IL-5), Interferon-γ (IFN-γ), and Tumor Necrosis Factor-α (TNF-α) protein levels in a single sample.

IL-2 spleen cells = assay: Th1/Th2 cytokine profiling assay: IL-2; assay type: cell-based, Balb/c mice; conditions: 10 micrograms per ml; Ovalbumin restimulation; 72 hours
Description: as §1

[1] = test system: Primary Human endothelial cells (HUVEC); assay: Endothelial cell migration assay; assay type: cell-based; conditions: 10 micrograms per ml, 22 hours
TNF-a spleen cells = assay: Th1/Th2 cytokine profiling assay: TNF-a; assay type: cell-based, Balb/c mice; conditions: 10 micrograms per ml; Ovalbumin restimulation; 72 hours
Description: as §1

IFNγ spleen cells = assay: Th1/Th2 cytokine profiling assay: IFNγ; assay type: cell-based, Balb/c mice; conditions: 10 micrograms per ml; Ovalbumin restimulation; 72 hours
Description: as §1

[2] = test system: cyclic AMP generation in human peripheral blood mononuclear cells (PBMC); assay: cAMP induction assay; assay type: cell-based; conditions: single peptides, 10 min at 37° C.
Protocol: The cAMP kit was used as an immunoassay for the quantitative determination of cyclic AMP generation in human peripheral blood mononuclear cells (PBMC). PBMC were placed in 96-well microtitier plates (50 microliters of cells at 4×10^6/ml) and 50 microliters of medium alone (background control), forskolin (cAMP positive control; 50 micrograms per ml), or test peptides were added. Plates were mixed and incubated for 10 min at 37° C. and the cells were lysed by the addition of 50 microliters of 3% perchloric acid. NaOH was added to neutralize the samples. Plates were centrifuged for 15 min at 2500 rpm and the supernatants removed. The supernatants (diluted 2-fold in assay buffer) were then assayed for the levels of cAMP by ELISA.

[3] = test system: hepatitis B virus (HBV) ayw strain; assay: HBV experimental assay system (HepG2-2.2.15, TaqMan PCR of HBV DNA); assay type: cell-based; conditions: 10 micrograms per ml; six days; as compared to the virus control infection
IL-5 spleen cells = assay: Th1/Th2 cytokine profiling assay: IL-5; assay type: cell-based, Balb/c mice; conditions: 10 micrograms per ml; Ovalbumin restimulation; 72 hours
Description: The Balb/c mice (originated in 1923, it is a popular strain and is used in many different research disciplines. Also classified as an inbred from the production of 20 or more successive brother-sister matings, the Balb/c mouse is albino and small in size) were immunized on Days 1, 15, and 29 with Ovalbumin (Ovalbumin is the main protein found in egg white, commonly used to stimulate an immunological reaction in test animals) in PBS (5 micrograms/injection). On day 50, spleens of the mice were harvested (3 weeks after last boost with Ovalbumin). […] Thereafter, additional Ovalbumin was added to the cells at 10 micrograms/ml for in vitro restimulation of the cells. 72 hours later, cell supernatants were harvested and assayed using the Becton Dickinson Mouse Th1/Th2 Cytokine CBA Kit.

Q: For “Tyr-Val-Met-Gly-His-Phe-Arg-Trp-Asp-Arg-Phe-NH2 (YVMGHFRWDRF-NH2) [peptide 1]”, which “IL-4 spleen cells; TH2 response (% of control)” value (IL-4 spleen cells) is on record?
A: 0.0 % of control

Q: And the “IL-2 spleen cells (% of control)” value (IL-2 spleen cells)?
A: 101.6 % of control

Q: What about the “induction of the migration of human endothelial cells” value [1] of the same substance?
A: 12%

Q: What about the “TNF-a spleen cells; TH1 response (% of control)” value (TNF-a spleen cells) of the same substance?
A: 85.7 % of control

Q: And the “IFNγ spleen cells; TH1 response (% of control)” value (IFNγ spleen cells)?
A: 97.3 % of control

Q: What about the “induction of cAMP formation in human peripheral blood cells” value [2] of the same substance?
A: 45.4%

Q: And the “inhibition of HBV replication” value [3]?
A: 17.4%

Q: What about the “IL-5 spleen cells; TH2 response (% of control)” value (IL-5 spleen cells) of the same substance?
A: 67.0 % of control
